Assay results from US20250144224A1, “ABL INHIBITORS AND USES THEREOF” (The Regents of the University of California, priority 2021, published 2025).

Tests used:
[1] = Parallel artificial membrane permeability assay (PAMPA); assay type: in vitro ADME
Procedure: PAMPA was performed by Quintara Discovery using the BioCoat Pre-coated PAMPA Plate System (Corning) as described previously (15) and based on manufacturer's recommendations. All compounds were assessed at 100 μM in PBS. Compound concentrations in donor and acceptor compartments were quantified using liquid chromatography-mass spectrometry (LC-MS) 5 h following compound addition into the donor compartment.

K562 cells (wild-type) = test: CellTiter-Glo cell viability, K562 wild-type; details: Homo sapiens, K562, 72 h, read-out: EC50 (nM) CTG K562 wt
Procedure: (§1) Compounds were tested for ability to inhibit cell growth. K562 cells (wild-type or CRISPR base-edited Bcr-Abl T315I) were plated at 1000 cells/well in 96-well plates and treated with the indicated compounds at the indicated concentrations for three days in triplicate, then tested for cell viability by the CellTiter-Glo 2.0 assay (Promega).
(§2) Compounds were tested for ability to inhibit cell growth. K562 cells (wild-type or CRISPR base-edited Bcr-Abl T315I) were plated at 1000 cells/well in 96-well plates and treated with the indicated compounds at the indicated concentrations for three days in triplicate, then tested for cell viability by the CellTiter-Glo 2.0 assay (Promega). […] Compounds were tested for ability to inhibit cell growth. K562 cells (wild-type or CRISPR base-edited Bcr-Abl T315I) were plated at 1000 cells/well in 96-well plates and treated with the indicated compounds at the indicated concentrations for three days in triplicate, then tested for cell viability by the CellTiter-Glo 2.0 assay (Promega).
(§3) Cells were treated with the indicated concentrations of compound in 9-point 3-fold dilution series (100 μL final volume per well) and incubated at 37° C. for 72 h. Cell viability was assessed by CellTiter-Glo (CTG) Luminescent Cell Viability Assay (Promega). Cells were equilibrated to room temperature before the addition of diluted (1:4 CTG reagent:PBS) CTG reagent (100 μL per well). Plates were agitated on an orbital shaker and luminescence signal was measured on a SpectraMax M5 (Molecular Devices) or Spark (Tecan) plate reader. Repeated measurements of luminescence were performed as technical replicates to determine incubation times optimal for signal-to-noise. Luminescence measurements were normalized to DMSO-treated values to determine relative cell viability.

[2] = system: K562 cells (CRISPR base-edited Bcr-Abl T315I); test: CellTiter-Glo cell viability, K562 Bcr-Abl T315I; details: Homo sapiens, K562, 72 h, read-out: EC50 (nM) CTG K562 T315I
Procedure: as §1, §2, §3

Compound: Cc1nc(Nc2ncc(C(=O)Nc3c(C)cccc3Cl)s2)cc(N2CCN(CCO)CC2)n1 [dasatinib]
- artificial membrane permeability by PAMPA ([1]; 100 μM in PBS, 5 h, LC-MS): readily permeable

Compound: Cc1ccc(C(=O)Nc2ccc(CN3CCN(C)CC3)c(C(F)(F)F)c2)cc1C#Cc1cnc2cc(OCCOCCOCCOCCOCCOCCOCCNC(=O)CCOCCOCCOCCOCCOCCOCCOCCOCCNC(=O)C3CCN(c4ncc(C(=O)Nc5ccc(OC(F)(F)Cl)cc5)cc4-c4ccn[nH]4)CC3)ccn12 [PonatiLink-2-7-8]
- EC50 (K562 cells (wild-type)): 0.36 nM
- EC50 [2]: 0.94 nM

Compound: Cc1ccc(C(=O)Nc2ccc(CN3CCN(C)CC3)c(C(F)(F)F)c2)cc1C#Cc1cnc2cc(OCCOCCOCCOCCOCCOCCOCCNC(=O)CCOCCOCCOCCOCCNC(=O)C3CCN(c4ncc(C(=O)Nc5ccc(OC(F)(F)Cl)cc5)cc4-c4ccn[nH]4)CC3)ccn12 [PonatiLink-2-7-4]
- EC50 (K562 cells (wild-type)): 0.39 nM
- EC50 [2]: 1.3 nM

Compound: Cc1ccc(C(=O)Nc2ccc(CN3CCN(C(=O)CCOCCOCCOCCOCCOCCOCCOCCOCCOCCOCCOCCOCCOCCOCCOCCOCCOCCOCCOCCOCCOCCOCCOCCOCCNC(=O)C4CCN(c5ncc(C(=O)Nc6ccc(OC(F)(F)Cl)cc6)cc5-c5ccn[nH]5)CC4)CC3)c(C(F)(F)F)c2)cc1C#Cc1cnc2cccnn12 [PonatiLink-1-24]
- EC50 (K562 cells (wild-type)): 0.87 nM
- EC50 [2]: 26.3 nM

Compound: O=C(Nc1ccc(OC(F)(F)Cl)cc1)c1cnc(N2CC[C@@H](O)C2)c(-c2ccn[nH]2)c1 [asciminib, reference compound]
- artificial membrane permeability by PAMPA ([1]; 100 μM in PBS, 5 h, LC-MS): readily permeable

Compound: Cc1ccc(C(=O)Nc2ccc(CN3CCN(C)CC3)c(C(F)(F)F)c2)cc1C#Cc1cnc2cc(OCCOCCOCCOCCOCCOCCOCCNC(=O)CCOCCOCCOCCOCCOCCOCCNC(=O)C3CCN(c4ncc(C(=O)Nc5ccc(OC(F)(F)Cl)cc5)cc4-c4ccn[nH]4)CC3)ccn12 [PonatiLink-2-7-6]
- EC50 (K562 cells (wild-type)): 0.38 nM
- EC50 [2]: 1.06 nM

Compound: CO[C@H]1C[C@@H]2CC[C@@H](C)[C@@](O)(O2)C(=O)C(=O)N2CCCC[C@H]2C(=O)O[C@H]([C@H](C)C[C@@H]2CC[C@@H](O)[C@H](OC)C2)CC(=O)[C@H](C)/C=C(\C)[C@@H](O)[C@@H](OC)C(=O)[C@H](C)C[C@H](C)/C=C/C=C/C=C/1C [rapamycin]
- artificial membrane permeability by PAMPA ([1]; 100 μM in PBS, 5 h, LC-MS): readily permeable

Compound: Cc1ccc(C(=O)Nc2ccc(CN3CCN(C(=O)CCOCCOCCOCCOCCOCCOCCOCCOCCOCCOCCOCCOCCOCCOCCOCCOCCOCCOCCOCCOCCOCCOCCOCCOCCOCCOCCOCCOCCNC(=O)C4CCN(c5ncc(C(=O)Nc6ccc(OC(F)(F)Cl)cc6)cc5-c5ccn[nH]5)CC4)CC3)c(C(F)(F)F)c2)cc1C#Cc1cnc2cccnn12 [PonatiLink-1-28]
- EC50 (K562 cells (wild-type)): 1.82 nM
- EC50 [2]: 49.1 nM

Compound: Cc1ccc(C(=O)Nc2ccc(CN3CCN(C)CC3)c(C(F)(F)F)c2)cc1C#Cc1cnc2cc(OCCOCCOCCOCCOCCOCCOCCNC(=O)CCOCCOCCOCCOCCOCCOCCOCCOCCOCCOCCNC(=O)C3CCN(c4ncc(C(=O)Nc5ccc(OC(F)(F)Cl)cc5)cc4-c4ccn[nH]4)CC3)ccn12 [PonatiLink-2-7-10]
- EC50 (K562 cells (wild-type)): 0.43 nM
- EC50 [2]: 0.94 nM

Compound: CO[C@@H]1C[C@@H]2CC[C@@H](C)[C@@](O)(O2)C(=O)C(=O)N2CCCC[C@@H]2C(=O)O[C@H]([C@H](C)C[C@H]2CC[C@H](OCCOCc3cn(CCOCCOCCOCCOCCOCCOCCOCCOCCC(=O)NCCCCn4nc(-c5ccc6oc(N)nc6c5)c5c(N)ncnc54)nn3)[C@H](OC)C2)CC(=O)[C@H](C)/C=C(\C)[C@H](O)[C@@H](OC)C(=O)[C@H](C)C[C@H](C)/C=C/C=C/C=C/1C [RapaLink-1]
- artificial membrane permeability by PAMPA ([1]; PAMPA): no measurable permeability

Compound: Cc1nc(Nc2ncc(C(=O)Nc3c(C)cccc3Cl)s2)cc(N2CCN(C(=O)CCOCCOCCOCCOCCOCCOCCOCCOCCOCCOCCNC(=O)C3CCN(c4ncc(C(=O)Nc5ccc(OC(F)(F)Cl)cc5)cc4-c4ccn[nH]4)CC3)CC2)n1 [DasatiLink-2]
- EC50 (K562 cells (wild-type)): 2.49 nM
- EC50 [2]: > 300 nM

Compound: CC(C)n1nc(-c2ccc3oc(N)nc3c2)c2c(N)ncnc21 [sapanisertib]
- artificial membrane permeability by PAMPA ([1]; 100 μM in PBS, 5 h, LC-MS): readily permeable
